According to patent publication US9963445B2, “Chemical compounds” (SYNGENTA PARTICIPATIONS AG, priority 2013, dated 2018):

Key:
Format in all cases: in vivo
[1] = test system: Abutilon theophrasti; experiment: Pre-emergence herbicidal activity, glasshouse pot test; conditions: pre-emergence spray, rate 1000 g/ha, evaluated after 13 days, scale 0-5
Description: (§1) Seeds of a variety of test species were sown in standard soil in pots. After cultivation for one day (pre-emergence) under controlled conditions in a glasshouse (at 24/16° C., day/night; 14 hours light; 65% humidity), the plants were sprayed with an aqueous spray solution derived from the formulation of the technical active ingredient in acetone/water (50:50) solution containing 0.5% Tween 20 (polyoxyethelyene sorbitan monolaurate, CAS RN 9005-64-5). The test plants were then grown in a glasshouse under controlled conditions (at 24/16° C., day/night; 14 hours light; 65% humidity) and watered twice daily. After 13 days, the test was evaluated (5=total damage to plant; 0=no damage to plant).
(§2) ABUTH=Abutilon theophrasti; SOLNI=Solanum nigrum; AMARE=Amaranthus retroflexus; SETFA=Setaria faberi; ALOMY=Alopecurus myosuroides; ECHCG=Echinochloa crus-galli, ZEAMX=zea mays.

[2] = test system: Alopecurus myosuroides; experiment: as above; conditions: pre-emergence spray, rate 1000 g/ha, evaluated after 13 days, scale 0-5
Description: as §1, §2

[3] = test system: Amaranthus retroflexus; experiment: as above; conditions: pre-emergence spray, rate 1000 g/ha, evaluated after 13 days, scale 0-5
Description: as §1, §2

[4] = test system: Echinochloa crus-galli; experiment: as above; conditions: pre-emergence spray, rate 1000 g/ha, evaluated after 13 days, scale 0-5
Description: as §1, §2

[5] = test system: Setaria faberi; experiment: as above; conditions: pre-emergence spray, rate 1000 g/ha, evaluated after 13 days, scale 0-5
Description: as §1, §2

[6] = test system: zea mays; experiment: as above; conditions: pre-emergence spray, rate 1000 g/ha, evaluated after 13 days, scale 0-5
Description: as §1, §2

[7] = test system: Abutilon theophrasti; experiment: Post-emergence herbicidal activity, glasshouse pot test; parameters: key: 0 = no damage to plant, 5 = total damage to plant; conditions: Application post-emergence, rate 1000 g/ha, evaluated after 13 days
Description: (§3) Seeds of a variety of test species were sown in standard soil in pots. After 8 days cultivation (post-emergence) under controlled conditions in a glasshouse (at 24/16° C., day/night; 14 hours light; 65% humidity), the plants were sprayed with an aqueous spray solution derived from the formulation of the technical active ingredient in acetone/water (50:50) solution containing 0.5% Tween 20 (polyoxyethelyene sorbitan monolaurate, CAS RN 9005-64-5). The test plants were then grown in a glasshouse under controlled conditions (at 24/16° C., day/night; 14 hours light; 65% humidity) and watered twice daily. After 13 days, the test was evaluated (5=total damage to plant; 0=no damage to plant).
as §2

[8] = test system: Alopecurus myosuroides; experiment: as above; parameters: key: 0 = no damage to plant, 5 = total damage to plant; conditions: Application post-emergence, rate 1000 g/ha, evaluated after 13 days
Description: as §3, §2

[9] = test system: Amaranthus retroflexus; experiment: as above; parameters: key: 0 = no damage to plant, 5 = total damage to plant; conditions: Application post-emergence, rate 1000 g/ha, evaluated after 13 days
Description: as §3, §2

[10] = test system: Echinochloa crus-galli; experiment: as above; parameters: key: 0 = no damage to plant, 5 = total damage to plant; conditions: Application post-emergence, rate 1000 g/ha, evaluated after 13 days
Description: as §3, §2

[11] = test system: Setaria faberi; experiment: as above; parameters: key: 0 = no damage to plant, 5 = total damage to plant; conditions: Application post-emergence, rate 1000 g/ha, evaluated after 13 days
Description: as §3, §2

[12] = test system: zea mays; experiment: as above; parameters: key: 0 = no damage to plant, 5 = total damage to plant; conditions: Application post-emergence, rate 1000 g/ha, evaluated after 13 days
Description: as §3, §2

| Compound | ABUTH damage score, application pre-emergence [1] | ALOMY damage score, application pre-emergence [2] | AMARE damage score, application pre-emergence [3] | ECHCG damage score, application pre-emergence [4] | SETFA damage score, application pre-emergence [5] | ZEAMX damage score, application pre-emergence [6] | ABUTH herbicidal damage score [7] | ALOMY herbicidal damage score [8] | AMARE herbicidal damage score [9] | ECHCG herbicidal damage score [10] | SETFA herbicidal damage score [11] | ZEAMX herbicidal damage score [12] |
| --- | --- | --- | --- | --- | --- | --- | --- | --- | --- | --- | --- | --- |
| CC1=C(Cl)C(=O)N(c2cc(C(C)C)ncn2)C1O (stereo not drawn) [CF19] | 5 | 2 | 5 | 4 | 4 | 2 | 5 | 3 | 5 | 5 | 5 | 3 |
| CC1=C(Cl)C(=O)N(c2cc(C(F)(F)F)c(-c3ccc(C#N)cc3)cn2)C1O (stereo not drawn) [AF93] | 1 | 0 | 2 | 0 | 0 | 0 | 4 | 4 | 5 | 4 | 4 | 2 |
| CC1=C(Cl)C(=O)N(c2cc(C)c([N+](=O)[O-])cn2)C1O (stereo not drawn) [AF48] | 0 | 1 | 0 | 1 | 0 | 0 | 0 | 2 | 5 | 3 | 3 | 0 |
| CC1=C(Cl)C(=O)N(c2cc(C(F)(F)F)c(C(F)(F)F)cn2)C1O (stereo not drawn) [AF43] | 0 | 0 | 0 | 0 | 0 | 0 | 1 | 2 | 1 | 5 | 5 | 0 |
| 6-(4-chloro-2-hydroxy-3-methyl-5-oxo-2H-pyrrol-1-yl)-4-(trifluoromethyl)pyridine-3-carbonitrile [AF3] | 0 | 3 | 2 | 4 | 4 | 2 | 5 | 5 | 5 | 5 | 5 | 4 |
| CC1=C(Cl)C(=O)N(c2cc([S+](C)[O-])ccn2)C1O (stereo not drawn) [AF51] | 0 | 0 | 0 | 0 | 0 | 0 | 4 | 3 | 0 | 3 | 3 | 0 |
| CC1=C(Br)C(=O)N(c2cc(C(F)(F)F)ccn2)C1O (stereo not drawn) [AG1] | 5 | 2 | 5 | 2 | 3 | 0 | 5 | 4 | 5 | 5 | 5 | 2 |
| CCN(CC)C(=O)c1cnc(N2C(=O)C(OC)=C(C)C2O)cc1C(F)(F)F (stereo not drawn) [AI9] | 5 | 4 | 5 | 5 | 4 | 3 | 5 | 5 | 5 | 5 | 5 | 4 |
| CC1=C(Cl)C(=O)N(c2cc(C3(C#N)CC3)ncn2)C1O (stereo not drawn) [CF17] | 2 | 3 | 5 | 3 | 5 | 2 | 5 | 4 | 5 | 5 | 5 | 3 |
| CCOc1nc(N2C(=O)C(Cl)=C(C)C2O)ncc1C#N (stereo not drawn) [DF4] | 0 | 0 | 0 | 0 | 0 | 0 | 0 | 0 | 0 | 0 | 0 | 0 |
| COc1nnc(N2C(=O)C(Cl)=C(C)C2O)cc1C (stereo not drawn) [BF6] | 4 | 3 | 5 | 5 | 3 | 2 | 5 | 5 | 5 | 5 | 5 | 4 |
| CC1=C(Cl)C(=O)N(c2cc(C(F)(F)F)c(-c3cccc(C#N)c3)cn2)C1O (stereo not drawn) [AF95] | 0 | 0 | 0 | 0 | 0 | 0 | 3 | 2 | 5 | 2 | 4 | 2 |
| CC(C)(C)C1=C(Cl)C(=O)N(c2cc(C(F)(F)F)ccn2)C1O (stereo not drawn) [AF82] | 0 | 0 | 0 | 0 | 0 | 1 | 0 | 0 | 0 | 3 | 0 | 2 |
| COC1=C(C)C(O)N(c2cc(C(C)(F)F)c(-c3cccnc3)nn2)C1=O (stereo not drawn) [BI21] | 2 | 2 | 2 | 2 | 3 | 0 | 3 | 4 | 5 | 4 | 4 | 1 |
| CCN(CC)C(=O)c1cnc(N2C(=O)C(Cl)=C(C)C2O)cc1C(F)(F)F (stereo not drawn) [AF96] | 0 | 0 | 0 | 0 | 0 | 0 | 0 | 0 | 0 | 0 | 0 | 1 |
